In patent publication US20230391845A1, “GLP-1, GIP AND GLUCAGON RECEPTOR TRIPLE AGONISTS” (priority 2020, published 2023):
Where two headings read alike, the source gives them in different places. *1 amine or outer side, *2 acyl side, *3 side chain or, on linkers, in order; H or OH if unused. Where a SMILES comes first, the peptide text is derived from it. Side-chain parts run from the residue outwards. [ ]: non-standard residue; d: D form. The star is where a group is joined. C18 diacid = O=C(O)CCCCCCCCCCCCCCCCC(=O)*; γGlu = O=C(O)[C@H](CCC(=O)[*:2])N[*:1]; εLys = N[C@@H](CCCCN[*:1])C(=O)[*:2]; AEEA = NCCOCCOCC(=O)O; Aib = CC(C)(N)C(=O)O

Columns and labels:
human GIP receptor = target: T1, human GIP receptor (Homo sapiens, UniProt P48546); experiment: In vitro functional potency (CRE luciferase; whole cells), human GIPR; assay type: cell-based; conditions: BHK CRE luc2P hGIPR whole cells, Table 1, position of substituent varied; for EC50: read-out: hGIPR CRE Luc EC50
T1 construct: expressed in transfected cells; host or cells: BHK cells (parent line BHKTS13) containing CRE luciferase
T1 sequence (P48546 22-466): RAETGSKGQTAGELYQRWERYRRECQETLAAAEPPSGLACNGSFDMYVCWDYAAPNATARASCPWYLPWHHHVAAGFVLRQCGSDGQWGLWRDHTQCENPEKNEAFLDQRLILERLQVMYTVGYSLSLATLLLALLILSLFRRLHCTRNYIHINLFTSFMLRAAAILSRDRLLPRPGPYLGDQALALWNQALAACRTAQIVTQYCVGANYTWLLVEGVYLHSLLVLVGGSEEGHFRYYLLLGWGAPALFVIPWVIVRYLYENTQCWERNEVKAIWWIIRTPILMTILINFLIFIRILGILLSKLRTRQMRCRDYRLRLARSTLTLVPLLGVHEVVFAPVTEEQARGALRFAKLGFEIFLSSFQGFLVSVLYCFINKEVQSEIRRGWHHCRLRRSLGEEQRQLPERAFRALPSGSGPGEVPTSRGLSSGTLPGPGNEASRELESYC

human Gcg receptor = target: T2, human Gcg receptor (Homo sapiens, UniProt P47871); experiment: In vitro functional potency (CRE luciferase; whole cells), human GcgR; assay type: cell-based; conditions: BHK CRE luc2P hGcgR whole cells; for EC50: read-out: hGcgR CRE Luc EC50
T2 construct: expressed in transfected cells; host or cells: BHK cells (parent line BHKTS13) containing CRE luciferase
Experimental: (§1) The purpose of this example is to test the functional activity, or potency, of the compounds in vitro at the human and mouse GLP-1, GIP, and Gcg receptors. The in vitro functional potency is the measure of target receptor activation in a whole cell assay.
(§2) In vitro functional potency was determined by measuring the response of the target receptor in a reporter gene assay in individual cell lines. The assay was performed in stably transfected BHK cell lines that expresses one of the following G-protein coupled receptors: human GLP-1 receptor, human GIP receptor, human Gcg receptor, mouse GLP-1 receptor, mouse GIP receptor, or mouse Gcg receptor; and where each cell line contains the DNA for the cAMP response element (CRE) coupled to a promoter and the gene for firefly luciferase (CRE luciferase). When the respective receptor is activated, it results in the production of cAMP, which in turn results in expression of the luciferase protein. When assay incubation is completed, luciferase substrate (luciferin) is added resulting in the enzymatic conversion of luciferin to oxyluciferin and producing bioluminescence. The luminescence is measured as the readout for the assay.
(§3) The cells lines used in these assays were BHK cells with BHKTS13 as a parent cell line. The cell lines were derived from a clone containing the CRE luciferase element and were established by further transfection with the respective receptor to obtain the relevant cell line.
(§4) The cells were cultured at 37° C. with 5% CO2 in Cell Culture Medium. They were aliquoted and stored in liquid nitrogen. The cells were kept in continuous culture and were seeded out the day before each assay.
(§5) GLP-1R and GcgR Cell Culture Medium consisted of DMEM medium with 10% FBS, 500 µg/mL G418, and 300 µg/mL hygromycin. GIPR Cell Culture Medium consisted of DMEM medium with 10% FBS, 400 µg/mL G418, and 300 µg/mL hygromycin. Assay Buffer consisted of DMEM w/o phenol red, 10 mM Hepes, 1× Glutamax, 1% ovalbumin, and 0.1% Pluronic F-68.
(§6) • 1) Cells were plated at 5000 cells/well and incubated overnight in the assay plate. • 2) Cells were washed once in DPBS. • 3) Stocks of the test compounds and reference compounds in concentrations ranging from 100-300 pM were diluted 1:150 in Assay Buffer.
(§7) The data from the microtiter plate reader was first regressed in an Excel in order to calculate the x-axis, log scale concentrations based on the individual test compound's stock concentration and the dilutions of the assay. […] The software performs a non-linear regression (log(agonist) vs response). A minimum of two replicates was measured for each sample. The reported values are averages of the replicates.

human GLP-1 receptor = target: T3, human GLP-1 receptor (Homo sapiens, UniProt P43220); experiment: In vitro functional potency (CRE luciferase; whole cells), human GLP-1R; assay type: cell-based; conditions: BHK CRE luc2P hGLP-1R whole cells; for EC50: read-out: hGLP-1R CRE Luc EC50
T3 construct: expressed in transfected cells; host or cells: BHK cells (parent line BHKTS13) containing CRE luciferase
Experimental: as §1, §2, §3, §4, §5, §6, §7

[1] = Pharmacokinetic study in minipigs, i.v. administration; parameters: species or system Göttingen minipigs; conditions: female, Göttingen, minipig, in vivo, iv
Method in brief: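 Terminal half-life, reported as harmonic mean, came from non-compartmental fits of plasma levels measured by antibody assay or LCMS over up to 14 days. Dosing was i.v., typically 1.5-2 nmol/kg, through implanted caval catheters in fasted female Göttingen minipigs of 16-35 kg.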

[2] = Table 1, position of substituent varied

T2 sequence (P47871 26-477): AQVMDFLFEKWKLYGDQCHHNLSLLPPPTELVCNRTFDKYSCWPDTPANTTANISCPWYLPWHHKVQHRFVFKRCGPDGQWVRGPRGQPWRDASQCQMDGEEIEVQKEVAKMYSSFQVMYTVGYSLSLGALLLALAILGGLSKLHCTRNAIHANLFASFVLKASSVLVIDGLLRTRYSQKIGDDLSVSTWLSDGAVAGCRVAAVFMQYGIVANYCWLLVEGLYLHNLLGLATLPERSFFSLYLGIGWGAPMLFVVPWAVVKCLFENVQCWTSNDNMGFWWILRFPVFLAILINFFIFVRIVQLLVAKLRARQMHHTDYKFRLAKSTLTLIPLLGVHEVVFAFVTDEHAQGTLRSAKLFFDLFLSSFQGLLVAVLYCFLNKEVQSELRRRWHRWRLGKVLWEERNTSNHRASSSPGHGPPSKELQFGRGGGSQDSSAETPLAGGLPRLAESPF
T3 sequence (P43220 24-463): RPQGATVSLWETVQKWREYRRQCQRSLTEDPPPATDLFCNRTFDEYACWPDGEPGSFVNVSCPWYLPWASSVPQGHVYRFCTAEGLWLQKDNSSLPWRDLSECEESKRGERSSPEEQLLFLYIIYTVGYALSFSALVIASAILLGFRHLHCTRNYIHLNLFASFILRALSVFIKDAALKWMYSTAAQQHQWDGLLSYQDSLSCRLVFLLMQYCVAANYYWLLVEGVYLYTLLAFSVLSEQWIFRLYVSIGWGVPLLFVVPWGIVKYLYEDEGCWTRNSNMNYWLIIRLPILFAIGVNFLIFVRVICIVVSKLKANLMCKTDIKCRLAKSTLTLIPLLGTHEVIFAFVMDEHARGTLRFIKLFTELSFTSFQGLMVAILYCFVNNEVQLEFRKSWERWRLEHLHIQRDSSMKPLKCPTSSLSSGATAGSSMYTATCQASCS

## CC[C@H](C)[C@H](NC(=O)[C@H](CO)NC(=O)[C@H](Cc1ccc(O)cc1)NC(=O)[C@H](CC(=O)O)NC(=O)[C@H](CO)NC(=O)[C@@H](NC(=O)[C@H](Cc1ccccc1)NC(=O)[C@@H](NC(=O)CNC(=O)[C@H](CCC(N)=O)NC(=O)C(C)(C)NC(=O)[C@@H](N)Cc1ccc(O)cc1)[C@@H](C)O)[C@@H](C)O)C(=O)N[C@@H](Cc1ccc(O)cc1)C(=O)N[C@@H](CC(C)C)C(=O)N[C@@H](CC(=O)O)C(=O)N[C@@H](CCCCNC(=O)COCCOCCNC(=O)COCCOCCNC(=O)CC[C@H](NC(=O)CCCCCCCCCCCCCCCCC(=O)O)C(=O)O)C(=O)N[C@@H](CCC(N)=O)C(=O)N[C@@H](C)C(=O)N[C@@H](C)C(=O)NC(C)(C)C(=O)N[C@@H](CCC(=O)O)C(=O)N[C@@H](Cc1ccccc1)C(=O)N[C@H](C(=O)N[C@@H](CC(N)=O)C(=O)N[C@@H](Cc1c[nH]c2ccccc12)C(=O)N[C@@H](CC(C)C)C(=O)N[C@@H](CC(C)C)C(=O)N[C@@H](C)C(=O)NCC(=O)NCC(=O)N1CCC[C@H]1C(=O)N[C@@H](CO)C(=O)N[C@@H](CO)C(=O)NCC(=O)N[C@@H](C)C(=O)N1CCC[C@H]1C(=O)N1CCC[C@H]1C(=O)N1CCC[C@H]1C(=O)N[C@@H](CO)C(N)=O)C(C)C [Compound No. 1] (H-Y[Aib]QGTFTSDYSIYLDK([AEEA-AEEA-γGlu-C18 diacid])QAA[Aib]EFVNWLLAGGPSSGAPPPS-NH2; N-terminus assumed)
Human GIP receptor
  EC50: 0.0237 nM
Human Gcg receptor; [2]
  EC50: 0.157 nM
Human GLP-1 receptor; [2]
  EC50: 0.0086 nM
[1]
  half-life: 61 h

## CC[C@H](C)[C@H](NC(=O)[C@H](CO)NC(=O)[C@H](Cc1ccc(O)cc1)NC(=O)[C@H](CC(=O)O)NC(=O)[C@H](CO)NC(=O)[C@@H](NC(=O)[C@H](Cc1ccccc1)NC(=O)[C@@H](NC(=O)CNC(=O)[C@H](CCC(N)=O)NC(=O)C(C)(C)NC(=O)[C@@H](N)Cc1ccc(O)cc1)[C@@H](C)O)[C@@H](C)O)C(=O)N[C@@H](Cc1ccc(O)cc1)C(=O)N[C@@H](CC(C)C)C(=O)N[C@@H](CC(=O)O)C(=O)N[C@@H](CCCCN)C(=O)N[C@@H](CCCCNC(=O)COCCOCCNC(=O)COCCOCCNC(=O)CC[C@H](NC(=O)CCCCCCCCCCCCCCCCC(=O)O)C(=O)O)C(=O)N[C@@H](C)C(=O)N[C@@H](C)C(=O)NC(C)(C)C(=O)N[C@@H](CCC(=O)O)C(=O)N[C@@H](Cc1ccccc1)C(=O)N[C@H](C(=O)N[C@@H](CC(N)=O)C(=O)N[C@@H](Cc1c[nH]c2ccccc12)C(=O)N[C@@H](CC(C)C)C(=O)N[C@@H](CC(C)C)C(=O)N[C@@H](C)C(=O)NCC(=O)NCC(=O)N1CCC[C@H]1C(=O)N[C@@H](CO)C(=O)N[C@@H](CO)C(=O)NCC(=O)N[C@@H](C)C(=O)N1CCC[C@H]1C(=O)N1CCC[C@H]1C(=O)N1CCC[C@H]1C(=O)N[C@@H](CO)C(N)=O)C(C)C [Compound No. 2] (H-Y[Aib]QGTFTSDYSIYLDKK([AEEA-AEEA-γGlu-C18 diacid])AA[Aib]EFVNWLLAGGPSSGAPPPS-NH2; N-terminus assumed)
Human GIP receptor
  EC50: 0.0498 nM
Human Gcg receptor; [2]
  EC50: 0.0476 nM
Human GLP-1 receptor; [2]
  EC50: 0.0071 nM
[1]
  half-life: 45 h

## CC[C@H](C)[C@H](NC(=O)[C@H](CO)NC(=O)[C@H](Cc1ccc(O)cc1)NC(=O)[C@H](CC(=O)O)NC(=O)[C@H](CO)NC(=O)[C@@H](NC(=O)[C@H](Cc1ccccc1)NC(=O)[C@@H](NC(=O)CNC(=O)[C@H](CCC(N)=O)NC(=O)C(C)(C)NC(=O)[C@@H](N)Cc1ccc(O)cc1)[C@@H](C)O)[C@@H](C)O)C(=O)N[C@@H](Cc1ccc(O)cc1)C(=O)N[C@@H](CC(C)C)C(=O)N[C@@H](CC(=O)O)C(=O)N[C@@H](CCCCN)C(=O)N[C@@H](CCC(N)=O)C(=O)N[C@@H](C)C(=O)N[C@@H](C)C(=O)NC(C)(C)C(=O)N[C@@H](CCCCNC(=O)COCCOCCNC(=O)COCCOCCNC(=O)CC[C@H](NC(=O)CCCCCCCCCCCCCCCCC(=O)O)C(=O)O)C(=O)N[C@@H](Cc1ccccc1)C(=O)N[C@H](C(=O)N[C@@H](CC(N)=O)C(=O)N[C@@H](Cc1c[nH]c2ccccc12)C(=O)N[C@@H](CC(C)C)C(=O)N[C@@H](CC(C)C)C(=O)N[C@@H](C)C(=O)NCC(=O)NCC(=O)N1CCC[C@H]1C(=O)N[C@@H](CO)C(=O)N[C@@H](CO)C(=O)NCC(=O)N[C@@H](C)C(=O)N1CCC[C@H]1C(=O)N1CCC[C@H]1C(=O)N1CCC[C@H]1C(=O)N[C@@H](CO)C(N)=O)C(C)C [Compound No. 3] (H-Y[Aib]QGTFTSDYSIYLDKQAA[Aib]K([AEEA-AEEA-γGlu-C18 diacid])FVNWLLAGGPSSGAPPPS-NH2; N-terminus assumed)
Human GIP receptor
  EC50: 0.0275 nM
Human Gcg receptor; [2]
  EC50: 0.0347 nM
Human GLP-1 receptor; [2]
  EC50: 0.0054 nM
[1]
  half-life: 33 h

## CC[C@H](C)[C@H](NC(=O)[C@H](CO)NC(=O)[C@H](Cc1ccc(O)cc1)NC(=O)[C@H](CC(=O)O)NC(=O)[C@H](CO)NC(=O)[C@@H](NC(=O)[C@H](Cc1ccccc1)NC(=O)[C@@H](NC(=O)CNC(=O)[C@H](Cc1c[nH]cn1)NC(=O)C(C)(C)NC(=O)[C@@H](N)Cc1c[nH]cn1)[C@@H](C)O)[C@@H](C)O)C(=O)N[C@@H](Cc1ccc(O)cc1)C(=O)N[C@@H](CC(C)C)C(=O)N[C@@H](CCC(=O)O)C(=O)N[C@@H](CCCCNC(=O)[C@@H](N)CCCCNC(=O)[C@@H](N)CCCCNC(=O)CC[C@H](NC(=O)CCCCCCCCCCCCCCCCC(=O)O)C(=O)O)C(=O)N[C@@H](CCCCN)C(=O)N[C@@H](Cc1ccc(O)cc1)C(=O)N[C@@H](C)C(=O)NC(C)(C)C(=O)N[C@@H](CCC(=O)O)C(=O)N[C@@H](Cc1ccccc1)C(=O)N[C@H](C(=O)N[C@@H](CCC(N)=O)C(=O)N[C@@H](Cc1c[nH]c2ccccc12)C(=O)N[C@@H](CC(C)C)C(=O)N[C@@H](CC(C)C)C(=O)N[C@@H](CCC(=O)O)C(=O)NCC(=O)NCC(=O)N1CCC[C@H]1C(=O)N[C@@H](CO)C(=O)N[C@@H](CO)C(=O)NCC(=O)N[C@@H](C)C(=O)N1CCC[C@H]1C(=O)N1CCC[C@H]1C(=O)N1CCC[C@H]1C(=O)N[C@@H](CO)C(N)=O)C(C)C [Compound No. 38] (H-H[Aib]HGTFTSDYSIYLEK([εLys-εLys-γGlu-C18 diacid])KYA[Aib]EFVQWLLEGGPSSGAPPPS-NH2)
Human Gcg receptor; Table 2
  EC50: 0.0064 nM
Human GLP-1 receptor; Table 2
  EC50: 0.0028 nM

## CC[C@H](C)[C@H](NC(=O)[C@H](CO)NC(=O)[C@H](Cc1ccc(O)cc1)NC(=O)[C@H](CC(=O)O)NC(=O)[C@H](CO)NC(=O)[C@@H](NC(=O)[C@H](Cc1ccccc1)NC(=O)[C@@H](NC(=O)CNC(=O)[C@H](CCC(N)=O)NC(=O)C(C)(C)NC(=O)[C@@H](N)Cc1ccc(O)cc1)[C@@H](C)O)[C@@H](C)O)C(=O)N[C@@H](Cc1ccc(O)cc1)C(=O)N[C@@H](CC(C)C)C(=O)N[C@@H](CC(=O)O)C(=O)N[C@@H](CCCCN)C(=O)N[C@@H](CCC(N)=O)C(=O)N[C@@H](C)C(=O)N[C@@H](C)C(=O)NC(C)(C)C(=O)N[C@@H](CCC(=O)O)C(=O)N[C@@H](Cc1ccccc1)C(=O)N[C@H](C(=O)N[C@@H](CC(N)=O)C(=O)N[C@@H](Cc1c[nH]c2ccccc12)C(=O)N[C@@H](CC(C)C)C(=O)N[C@@H](CC(C)C)C(=O)N[C@@H](C)C(=O)NCC(=O)NCC(=O)N1CCC[C@H]1C(=O)N[C@@H](CO)C(=O)N[C@@H](CO)C(=O)NCC(=O)N[C@@H](C)C(=O)N1CCC[C@H]1C(=O)N1CCC[C@H]1C(=O)N1CCC[C@H]1C(=O)N[C@@H](CO)C(=O)N[C@@H](CCCCNC(=O)COCCOCCNC(=O)COCCOCCNC(=O)CC[C@H](NC(=O)CCCCCCCCCCCCCCCCC(=O)O)C(=O)O)C(N)=O)C(C)C [Compound No. 59, reference compound] (H-Y[Aib]QGTFTSDYSIYLDKQAA[Aib]EFVNWLLAGGPSSGAPPPSK([AEEA-AEEA-γGlu-C18 diacid])-NH2; N-terminus assumed)
Human GIP receptor
  hGIPR CRE Luc EC50 (pM): lower potency
Human Gcg receptor; [2]
  hGcgR CRE Luc EC50 (pM): lower potency
Human GLP-1 receptor; [2]
  hGLP-1R CRE Luc EC50 (pM): lower potency
